For data set [1], the system named is dendritic cells (DCs) pulsed with InsB9–23. The data set is described as follows: MHC-II. The class given is cell-based, NOD mice. The conditions noted are these: InsB9–23-pulsed DCs, TNFα or TNFα plus NAC; three independent peptidomes.
Data set [2] deals with MIN6 cells and B6 mouse islets. Kind of data set: Granule-based antigen presentation. The class given is cell-based. The conditions noted are these: MIN6 cells stimulated with TNFα; for S5 T cell responses to crinosome fractions from TNFα-treated MIN6 cells: with or without glutathione or TUDCA, n = 6.
Data set [3] has as its system InsB9–23(C19S)-specific T cell hybridomas. Kind of data set: Responses of InsB9–23. The class given is cell-based, NOD mice. The conditions noted are these: C3.g7 cells pulsed with peptides, 0.3 μM; n = 6 hybridomas.
For another data set, the system named is MHC-II. The conditions noted are these: cited from earlier work.
For another data set, the system named is soluble I-A^g7 molecules. Kind of data set: Biochemical competitive binding assay. Details: species or system mouse. Particulars: soluble I-A^g7, Extended Data Fig. 3c,d, n = 2.
Data set [4] concerns 9B9 CD4^+ T cell hybridoma. Kind of data set: Response of the 9B9 CD4+ T cell hybridoma to synthetic peptides. The class given is cell-based, NOD mice. Particulars: serially diluted peptide, IL-2 production.
The subject of data set [5] is S5 CD4^+ T cell hybridoma. Kind of data set: Response of the S5 CD4+ T cell hybridoma to synthetic peptides. The class given is cell-based, NOD mice. The conditions noted are these: serially diluted peptide, IL-2 production.
The test system of data set [6] is islet and pancreatic lymph node cells. The data set is described as follows: IFNγ ELISPOT, antigen recall of pooled islet and pancreatic lymph node cells. The class given is cell-based. The conditions noted are these: cells pooled from islets and pancreatic lymph nodes of 8-week-old female NOD mice, peptide 1 μM; n = 4.
In data set [7] the test system is MIN6 cells and B6 mouse islets. Kind of data set: β cell death and total granule protein after tunicamycin. Particulars: tunicamycin 2 h, followed by extensive washing. The class given is cell-based.

The values that follow come from paper PMC12764431 (Nature immunology, 2025).

As for `CC(=O)N[C@@H](CS)C(=O)O` [NAC, N-acetylcysteine], in data set [1], the “InsB9–23(C19S) peptide in the DC I-A^g7 peptidome” value is recorded as “reduced”.

On to `C[C@H](CCC(=O)NCCS(=O)(=O)O)[C@H]1CC[C@H]2[C@@H]3[C@@H](O)C[C@@H]4C[C@H](O)CC[C@]4(C)[C@H]3CC[C@]12C` [TUDCA, tauroursodeoxycholic acid], for which the “S5 T cell responses to crinosome fractions from TNFα-treated MIN6 cells” value in data set [2] is recorded as “inhibited”. In the case of `N[C@@H](CCC(=O)N[C@@H](CS)C(=O)NCC(=O)O)C(=O)O` [glutathione], the “S5 T cell responses to crinosome fractions from TNFα-treated MIN6 cells” value in [2] is “inhibited”. In the case of EALYLVSGE [Nested InsB13-21(C19S)], in [3], the “Recognition of register peptides by InsB9–23(C19S)-specific T cell hybridomas” value is “only a few recognizing”. With GDLQTLALEVARE [CP1d], the “MHC-II binding relative to the native C-peptide” value in the data set on MHC-II was ~ 45 fold. Turning to “InsB12–20(C19A): surrogate InsB12–20 peptide with C19A”, in the data set with soluble I-A^g7 molecules, the “Binding to I-A^g7 compared to native counterparts” value is recorded as “similarly reduced binding”. Consider SHLVEALALVCGERG [InsB9–23(Y16A)], for which the “Response of the 9B9 T cell hybridoma to peptide” value in [4] was “did not respond”. Further, the “Response of the S5 T cell hybridoma to peptide” value in [5] is “failed to respond at any peptide concentration”. For SHLVEALYLVCGERG [InsB9–23], the “IFNγ production by ELISPOT during antigen recall” value in [6] is “induced IFNγ production”.

Regarding SHLVEALYLVSGERG [InsB9–23(C19S)], the “Response of the 9B9 T cell hybridoma to peptide” value in [4] is reported as “minimal reactivity”. The “IFNγ production by ELISPOT during antigen recall” value in data set [6] was “triggered even higher responses”. Further, the “Response of the S5 T cell hybridoma to peptide” value in data set [5] is on record as “responded robustly”.

Take TNFα: the “InsB9–23(C19S) peptide in the DC I-A^g7 peptidome” value in data set [1] is “appeared”. Besides, in [2], the “Native InsB9–23 levels (9B9 T cell responses), TNFα-treated MIN6 cells” value is “did not affect” and the “S5 T cell responses to crinosome fractions from TNFα-treated MIN6 cells” value is on record as “significant increase”. With tunicamycin, in data set [7], the β cell death entry is “did not cause β cell death”.
